# Source: patent US20040039053A1, “Use of(-) (3-halomethylphenoxy) (4-halophenyl) acetic acid derivatives for treatment of insulin resistance, type 2 diabetes, hyperlipidemia and hyperuricemia” (priority 2000, published 2004)
# Where two headings read alike, the source gives them in different places.
# Key:
# CYP2E1 [1] = biological target: T1, CYP2E1 (Homo sapiens, UniProt P05181); assay: Cytochrome P450 isoform inhibition in human hepatic microsomes, chlorzoxazone (Example 18); conditions: 0.33 to 33.3 μM
# CYP3A4 [2] = biological target: T2, CYP3A4 (Homo sapiens, UniProt P08684); assay: in vitro; conditions: both, microsomes
# CYP1A2 [3] = biological target: T3, CYP1A2 (Homo sapiens, UniProt P05177); conditions: both, 30 min
# T3 sequence (P05177 1-516): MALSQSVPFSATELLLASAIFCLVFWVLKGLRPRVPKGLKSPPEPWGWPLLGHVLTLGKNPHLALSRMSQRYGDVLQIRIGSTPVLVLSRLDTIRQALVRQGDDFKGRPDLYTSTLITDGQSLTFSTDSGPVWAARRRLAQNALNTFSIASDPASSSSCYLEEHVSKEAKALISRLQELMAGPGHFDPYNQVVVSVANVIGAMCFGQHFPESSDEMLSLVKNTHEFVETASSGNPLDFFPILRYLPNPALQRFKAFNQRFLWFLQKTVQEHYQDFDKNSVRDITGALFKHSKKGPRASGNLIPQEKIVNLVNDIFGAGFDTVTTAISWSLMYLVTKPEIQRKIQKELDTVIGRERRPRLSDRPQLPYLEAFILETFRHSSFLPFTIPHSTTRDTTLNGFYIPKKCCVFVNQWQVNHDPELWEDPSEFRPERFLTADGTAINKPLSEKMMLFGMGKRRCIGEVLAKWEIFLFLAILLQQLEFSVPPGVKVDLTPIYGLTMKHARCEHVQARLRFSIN
# CYP2C9 [4] = biological target: T4, CYP2C9 (Homo sapiens, UniProt P11712); assay: in vitro; conditions: both, microsomes
# CYP2D6 [5] = biological target: T5, CYP2D6 (Homo sapiens, UniProt P10635); assay: in vitro; conditions: both, microsomes
# CYP2E1 [6] = biological target: T1, CYP2E1; conditions: both, 20 min
# CYP2C19 = CYP2C19 (Homo sapiens, UniProt P33261); assay: Cytochrome P450 isoform inhibition in human hepatic microsomes, S-mephenytoin (Example 18); format: in vitro ADME
# CYP2A6 [7] = biological target: T6, CYP2A6 (Homo sapiens, UniProt P11509); assay: in vitro; conditions: both, microsomes
# T6 sequence (P11509 1-494): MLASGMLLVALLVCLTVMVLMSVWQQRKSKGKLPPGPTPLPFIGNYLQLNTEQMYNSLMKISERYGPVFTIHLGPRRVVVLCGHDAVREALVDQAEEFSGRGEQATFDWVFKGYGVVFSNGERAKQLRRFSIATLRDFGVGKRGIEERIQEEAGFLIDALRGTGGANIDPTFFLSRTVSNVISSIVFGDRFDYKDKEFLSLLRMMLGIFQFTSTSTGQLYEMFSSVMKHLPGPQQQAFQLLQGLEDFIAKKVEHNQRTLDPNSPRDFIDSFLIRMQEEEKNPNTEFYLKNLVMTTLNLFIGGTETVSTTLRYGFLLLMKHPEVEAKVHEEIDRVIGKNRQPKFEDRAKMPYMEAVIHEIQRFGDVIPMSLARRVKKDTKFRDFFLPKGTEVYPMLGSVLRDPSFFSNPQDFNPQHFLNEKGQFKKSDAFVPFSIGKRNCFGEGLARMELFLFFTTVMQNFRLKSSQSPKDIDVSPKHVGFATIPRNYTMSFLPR
# CYP1A2 [8] = biological target: T3, CYP1A2; assay: in vitro; conditions: both, microsomes
# CYP2E1 [9] = biological target: T1, CYP2E1; assay: in vitro; conditions: both, microsomes
# CYP2C9 [10] = biological target: T4, CYP2C9; conditions: for Tolbutamide 4-OH TB Production: both, human, 40 min
# CYP2D6 [11] = biological target: T5, CYP2D6; conditions: both, 15 min
# CYP3A4 [12] = biological target: T2, CYP3A4; conditions: both, 10 min
# CYP2A6 [13] = biological target: T6, CYP2A6; conditions: both, 20 min
# T2 sequence (P08684 whole entry): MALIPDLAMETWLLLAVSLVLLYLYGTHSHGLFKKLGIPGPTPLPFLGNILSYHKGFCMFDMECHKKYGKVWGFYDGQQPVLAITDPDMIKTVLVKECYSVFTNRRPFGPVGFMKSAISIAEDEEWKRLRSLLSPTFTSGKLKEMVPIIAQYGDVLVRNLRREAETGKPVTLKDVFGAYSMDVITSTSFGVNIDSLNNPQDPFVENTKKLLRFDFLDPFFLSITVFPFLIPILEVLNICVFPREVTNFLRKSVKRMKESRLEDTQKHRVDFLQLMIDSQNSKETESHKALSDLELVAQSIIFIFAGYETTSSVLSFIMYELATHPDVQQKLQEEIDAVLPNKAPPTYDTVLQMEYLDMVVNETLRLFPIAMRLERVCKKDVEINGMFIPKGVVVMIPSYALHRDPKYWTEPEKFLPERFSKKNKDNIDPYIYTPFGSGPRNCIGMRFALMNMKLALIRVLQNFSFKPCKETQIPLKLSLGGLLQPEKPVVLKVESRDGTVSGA
# T1 sequence (P05181 whole entry, canonical isoform): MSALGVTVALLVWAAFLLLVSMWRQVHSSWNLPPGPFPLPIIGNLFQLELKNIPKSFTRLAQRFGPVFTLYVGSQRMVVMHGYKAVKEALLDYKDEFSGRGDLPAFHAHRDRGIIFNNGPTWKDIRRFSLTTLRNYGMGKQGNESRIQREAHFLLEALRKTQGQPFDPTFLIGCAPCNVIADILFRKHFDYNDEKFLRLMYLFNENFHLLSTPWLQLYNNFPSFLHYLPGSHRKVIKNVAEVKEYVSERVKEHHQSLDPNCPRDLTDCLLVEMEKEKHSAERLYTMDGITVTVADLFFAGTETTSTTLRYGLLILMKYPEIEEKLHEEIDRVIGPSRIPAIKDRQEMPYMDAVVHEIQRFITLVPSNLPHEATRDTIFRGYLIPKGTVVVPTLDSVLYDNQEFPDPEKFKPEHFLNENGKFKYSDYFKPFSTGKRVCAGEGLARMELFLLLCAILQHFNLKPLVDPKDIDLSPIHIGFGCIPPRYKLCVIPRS
# T5 sequence (P10635 whole entry): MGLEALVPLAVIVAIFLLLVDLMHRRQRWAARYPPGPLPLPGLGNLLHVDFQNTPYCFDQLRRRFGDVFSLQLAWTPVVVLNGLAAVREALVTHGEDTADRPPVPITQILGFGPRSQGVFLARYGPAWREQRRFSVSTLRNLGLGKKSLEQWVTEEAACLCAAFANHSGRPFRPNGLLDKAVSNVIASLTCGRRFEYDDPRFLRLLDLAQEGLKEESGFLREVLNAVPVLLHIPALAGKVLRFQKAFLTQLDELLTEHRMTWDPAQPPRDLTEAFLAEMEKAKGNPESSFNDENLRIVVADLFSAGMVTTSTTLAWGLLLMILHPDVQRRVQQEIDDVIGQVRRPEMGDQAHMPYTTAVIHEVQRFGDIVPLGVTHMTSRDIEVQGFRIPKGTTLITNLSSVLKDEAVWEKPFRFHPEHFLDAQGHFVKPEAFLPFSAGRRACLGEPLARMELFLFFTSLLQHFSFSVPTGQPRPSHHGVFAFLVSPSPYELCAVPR
# T4 sequence (P11712 whole entry): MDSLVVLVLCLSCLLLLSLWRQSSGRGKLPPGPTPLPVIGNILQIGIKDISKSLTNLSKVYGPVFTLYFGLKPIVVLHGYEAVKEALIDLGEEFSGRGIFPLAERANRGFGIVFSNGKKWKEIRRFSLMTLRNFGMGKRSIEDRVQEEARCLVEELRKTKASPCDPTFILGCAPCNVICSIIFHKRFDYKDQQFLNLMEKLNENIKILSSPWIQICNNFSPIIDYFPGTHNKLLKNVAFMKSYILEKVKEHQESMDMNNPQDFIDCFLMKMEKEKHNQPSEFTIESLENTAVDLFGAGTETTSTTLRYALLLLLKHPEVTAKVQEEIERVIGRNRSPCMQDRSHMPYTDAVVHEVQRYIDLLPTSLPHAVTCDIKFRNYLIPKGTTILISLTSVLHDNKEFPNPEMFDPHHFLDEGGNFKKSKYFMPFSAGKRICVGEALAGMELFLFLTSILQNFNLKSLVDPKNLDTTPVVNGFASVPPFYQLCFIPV
# Sequence of CYP2C19 (P33261 whole entry, canonical isoform): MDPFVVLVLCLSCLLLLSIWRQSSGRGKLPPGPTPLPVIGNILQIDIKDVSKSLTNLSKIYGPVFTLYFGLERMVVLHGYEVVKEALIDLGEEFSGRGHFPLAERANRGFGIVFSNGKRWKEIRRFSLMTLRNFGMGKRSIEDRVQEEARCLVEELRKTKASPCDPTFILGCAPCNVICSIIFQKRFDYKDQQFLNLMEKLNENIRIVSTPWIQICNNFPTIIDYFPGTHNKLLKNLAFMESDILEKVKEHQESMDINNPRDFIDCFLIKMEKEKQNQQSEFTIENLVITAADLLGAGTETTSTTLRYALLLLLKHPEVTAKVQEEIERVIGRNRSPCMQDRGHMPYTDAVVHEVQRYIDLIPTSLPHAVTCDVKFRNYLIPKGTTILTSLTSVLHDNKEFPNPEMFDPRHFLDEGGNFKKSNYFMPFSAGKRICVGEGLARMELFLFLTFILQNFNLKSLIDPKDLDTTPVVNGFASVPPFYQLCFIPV
smiles,measurement,setting,value
"O=C(O)C(Oc1cccc(C(F)(F)F)c1)c1ccc(Cl)cc1 (single isomer, unassigned; (-)) [(−) halofenic acid, (−) 4-chlorophenyl-(3-trifluoromethylphenoxy)-acetic acid]","inhibition of CYP2E1, in words",CYP2E1 [1],not observed
same,"inhibition at 10 min, 0.33 µM",CYP3A4 [2],1.5%
same,"inhibition at 10 min, 1 µM",CYP3A4 [2],0%
same,"inhibition at 10 min, 3.3 µM",CYP3A4 [2],1.8%
same,"inhibition at 10 min, 10 µM",CYP3A4 [2],1.3%
same,"inhibition at 10 min, 33.3 µM",CYP3A4 [2],1.5%
same,Phenacetin AC Production,CYP1A2 [3]; 0.33 μM,116 ± 2 pmol/mg protein/min
same,Phenacetin AC Production,CYP1A2 [3]; 1 μM,118 ± 2 pmol/mg protein/min
same,Phenacetin AC Production,CYP1A2 [3]; 3.3 μM,119 ± 2 pmol/mg protein/min
same,Phenacetin AC Production,CYP1A2 [3]; 10 μM,119 ± 2 pmol/mg protein/min
same,Phenacetin AC Production,CYP1A2 [3]; 33.3 μM,119 ± 2 pmol/mg protein/min
same,"inhibition at 40 min, 0.33 μM",CYP2C9 [4],5%
same,"inhibition at 40 min, 1 μM",CYP2C9 [4],10%
same,"inhibition at 40 min, 3.3 μM",CYP2C9 [4],21%
same,"inhibition at 40 min, 10 μM",CYP2C9 [4],47%
same,"inhibition at 40 min, 33.3 μM",CYP2C9 [4],71%
same,"inhibition at 15 min, 0.33 μM",CYP2D6 [5],3%
same,"inhibition at 15 min, 1 μM",CYP2D6 [5],1%
same,"inhibition at 15 min, 3.3 µM",CYP2D6 [5],6%
same,"inhibition at 15 min, 10 µM",CYP2D6 [5],4%
same,"inhibition at 15 min, 33.3 µM",CYP2D6 [5],5%
same,Chlorzoxazone 6-OH CZX Production,CYP2E1 [6]; 0.33 μM,238 ± 4 pmol/mg protein/min
same,Chlorzoxazone 6-OH CZX Production,CYP2E1 [6]; 1 μM,244 ± 1 pmol/mg protein/min
same,Chlorzoxazone 6-OH CZX Production,CYP2E1 [6]; 3.3 μM,239 ± 4 pmol/mg protein/min
same,Chlorzoxazone 6-OH CZX Production,CYP2E1 [6]; 10 μM,244 ± 6 pmol/mg protein/min
same,Chlorzoxazone 6-OH CZX Production,CYP2E1 [6]; 33.3 μM,239 ± 4 pmol/mg protein/min
same,"inhibition at 30 min, 0.33 μM","CYP2C19; both sexes, human, pooled human hepatic microsomes, probe S-mephenytoin 50 μM, test article 0.33 μM",4%
same,"inhibition at 30 min, 1 μM","CYP2C19; both sexes, human, pooled human hepatic microsomes, probe S-mephenytoin 50 μM, test article 1.0 μM",5%
same,"inhibition at 30 min, 3.3 μM","CYP2C19; both sexes, human, pooled human hepatic microsomes, probe S-mephenytoin 50 μM, test article 3.3 μM",15%
same,"inhibition at 30 min, 10 μM","CYP2C19; both sexes, human, pooled human hepatic microsomes, probe S-mephenytoin 50 μM, test article 10 μM",23%
same,"inhibition at 30 min, 33.3 μM","CYP2C19; both sexes, human, pooled human hepatic microsomes, probe S-mephenytoin 50 μM, test article 33.3 μM",43%
same,IC50,"CYP2C19; human hepatic microsomes 1 mg/mL, 50 μM S-mephenytoin, 30 minutes, read-out: IC50, 4-hydroxymephenytoin production (CYP2C19)",> 33.3 µM
same,"inhibition at 20 min, 0.33 μM",CYP2A6 [7],-4%
same,"inhibition at 20 min, 1 μM",CYP2A6 [7],-2%
same,"inhibition at 20 min, 3.3 μM",CYP2A6 [7],0%
same,"inhibition at 20 min, 10 μM",CYP2A6 [7],-3%
same,"inhibition at 20 min, 33.3 μM",CYP2A6 [7],-1%
same,"inhibition at 30 min, 0.33 μM",CYP1A2 [8],1%
same,"inhibition at 30 min, 1 μM",CYP1A2 [8],0%
same,"inhibition at 30 min, 3.3 μM",CYP1A2 [8],-1%
same,"inhibition at 30 min, 10 μM",CYP1A2 [8],-1%
same,"inhibition at 30 min, 33.3 μM",CYP1A2 [8],-1%
same,"inhibition at 20 min, 0.33 μM",CYP2E1 [9],3%
same,"inhibition at 20 min, 1 μM",CYP2E1 [9],1%
same,"inhibition at 20 min, 3.3 μM",CYP2E1 [9],3%
same,"inhibition at 20 min, 10 μM",CYP2E1 [9],1%
same,"inhibition at 20 min, 33.3 μM",CYP2E1 [9],3%
same,IC50 for CYP2C9 in Example 18 relative to that reported in Example 7,CYP2C9 [10],approximately three times
same,Tolbutamide 4-OH TB Production,CYP2C9 [10]; 0.33 μM,41.0 ± 0.9 pmol/mg protein/min
same,Tolbutamide 4-OH TB Production,CYP2C9 [10]; 1 μM,38.6 ± 0.5 pmol/mg protein/min
same,Tolbutamide 4-OH TB Production,CYP2C9 [10]; 3.3 μM,34.2 ± 0.2 pmol/mg protein/min
same,Tolbutamide 4-OH TB Production,CYP2C9 [10]; 10 μM,22.7 ± 0.6 pmol/mg protein/min
same,Tolbutamide 4-OH TB Production,CYP2C9 [10]; 33.3 μM,12.7 ± 0.2 pmol/mg protein/min
same,Dextromethorphan DEX Production,CYP2D6 [11]; 0.33 μM,107 ± 4 pmol/mg protein/min
same,Dextromethorphan DEX Production,CYP2D6 [11]; 1 μM,110 ± 2 pmol/mg protein/min
same,Dextromethorphan DEX Production,CYP2D6 [11]; 3.3 µM,104 ± 3 pmol/mg protein/min
same,Dextromethorphan DEX Production,CYP2D6 [11]; 10 µM,107 ± 1 pmol/mg protein/min
same,Dextromethorphan DEX Production,CYP2D6 [11]; 33.3 µM,106 ± 4 pmol/mg protein/min
same,Testosterone 6β-OHT Production,CYP3A4 [12]; 0.33 µM,1816 ± 12 pmol/mg protein/min
same,Testosterone 6β-OHT Production,CYP3A4 [12]; 1 µM,1851 ± 14 pmol/mg protein/min
same,Testosterone 6β-OHT Production,CYP3A4 [12]; 3.3 µM,1810 ± 3 pmol/mg protein/min
same,Testosterone 6β-OHT Production,CYP3A4 [12]; 10 µM,1819 ± 4 pmol/mg protein/min
same,Testosterone 6β-OHT Production,CYP3A4 [12]; 33.3 µM,1816 ± 6 pmol/mg protein/min
same,Coumarin 7-HC Production,CYP2A6 [13]; 0.33 μM,33.3 ± 0.7 pmol/mg protein/min
same,Coumarin 7-HC Production,CYP2A6 [13]; 1 μM,32.6 ± 0.7 pmol/mg protein/min
same,Coumarin 7-HC Production,CYP2A6 [13]; 3.3 μM,32.1 ± 0.7 pmol/mg protein/min
same,Coumarin 7-HC Production,CYP2A6 [13]; 10 μM,33.1 ± 0.7 pmol/mg protein/min
same,Coumarin 7-HC Production,CYP2A6 [13]; 33.3 μM,32.3 ± 0.7 pmol/mg protein/min
